Data published in publication PMC8220737, “Molecular docking, chemo-informatic properties, alpha-amylase, and lipase inhibition studies of benzodioxol derivatives” (BMC Chemistry, 2021).
Converted amounts (≈) assume the structure as drawn. “And” between values parts separate entries of the source, which are not always exact repeats. Identical values can stand only once.

Experiments:
[1] = biological target: T1, porcine pancreatic amylase enzyme (Sus scrofa, UniProt P00690); assay: α-Amylase inhibitory activity (DNSA method); type: biochemical; details: for IC50 (µg/ml) α-amylase / IC50: five concentrations 1, 10, 50, 100, 500 µg/ml, acarbose positive control; for potency relative to acarbose, α-amylase: folds more potent than acarbose
T1 construct: purchased Frutarom (UK)
T1 sequence (P00690 16-511): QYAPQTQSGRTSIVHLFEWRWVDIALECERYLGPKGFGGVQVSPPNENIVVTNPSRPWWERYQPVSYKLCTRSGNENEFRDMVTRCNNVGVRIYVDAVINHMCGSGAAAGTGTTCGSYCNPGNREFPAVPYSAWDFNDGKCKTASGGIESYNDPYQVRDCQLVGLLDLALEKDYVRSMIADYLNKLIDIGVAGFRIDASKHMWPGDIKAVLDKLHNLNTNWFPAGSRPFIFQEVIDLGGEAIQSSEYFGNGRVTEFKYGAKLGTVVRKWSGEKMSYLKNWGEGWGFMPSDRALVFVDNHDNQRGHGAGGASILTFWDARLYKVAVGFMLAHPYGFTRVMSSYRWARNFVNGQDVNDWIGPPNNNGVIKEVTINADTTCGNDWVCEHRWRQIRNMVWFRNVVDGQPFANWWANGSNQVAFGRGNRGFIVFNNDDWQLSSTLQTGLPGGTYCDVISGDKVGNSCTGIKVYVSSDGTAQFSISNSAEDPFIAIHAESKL
From the text: The in vitro antidiabetic activity of the synthesized compounds was investigated by assessing their α-amylase inhibitory effects. Acarbose was used as a positive control.
The following materials were purchased from Frutarom (UK): β-carotene, porcine pancreatic amylase enzyme solution, starch, dinitrosalicylic acid (DNSA), methanol, trolox, gallic acid, Na2CO3, and acarbose.
The α-amylase inhibitory assessment was based on the Wickramaratne et al. protocol with some slight alterations in some steps. The experimental part was carried out by following the 3,5-dinitrosalicylic acid (DNSA) procedure. Solutions of 20 mm sodium phosphate monobasic and sodium phosphate dibasic buffer involving 6.7 mm sodium chloride (NaH2PO4 and Na2HPO4, both including 6.7 mm NaCl, pH 6.9) were constructed by partially filling the beaker with NaH2PO4 and NaCl solution; the mixture was subjected to a magnetic stirrer. In contrast, the pH was adjusted by inserting a calibrated pH electrode in the solution. Then, the Na2HPO4 and NaCl solution was gradually added until the pH reached 6.9. A weight of 5.36 g of 20 mm Na2HPO4. 7H2O and 0.39 g of 6.7 mm NaCl were dispersed in distilled water to make 1 L and a weight of 2.76 g of NaH2PO4. […] Working solutions with concentrations of 1, 10, 50, 100 and 500 µg/ml were obtained by mixing 0.01, 0.1, 0.5, 1, and 5 ml of our synthesized molecules, respectively, and then diluting them with a buffer of Na2HPO4/NaH2PO4 (0.02 M) and NaCl (0.006 M) at pH 6.9 and then brined up to 10 ml using VF (10 ml). The acarbose was considered a reference and was established following the same previous steps used for the synthesized molecules.
A starch solution with a concentration of 1% (w/v) was prepared by suspending 1000 mg of starch in 100 ml of distilled water using V.F (100 ml), and then it was kept in a water bath at 37 °C until use, with occasional mixing to prevent starch precipitation. DNSA was used as a reactive reagent to react with reducing sugars to produce 3-amino-5- nitro salicylic acid that is highly absorbent of light at about 540 nm. It was prepared by dissolving 12 g of sodium potassium tartrate tetrahydrate in 8.0 ml of 2 M NaOH (8 g in 100 ml distill. water) then further dissolved in 20 ml of 96 mm of 3.5-dinitrosalicylic acid solution.
Then, 200 μl of the amylase solution (2 units/ml) was gently shaken with 200 μl of each of the VOs established working solutions, and then this was incubated at 37 °C for 10 min. Then 200 μl of the starch solution was added to each test tube, and there was further incubation for 3 min at 37 °C. The addition of 200 μl DNSA terminated the reaction and then boiling for 10 min at 85 to 90 °C. The mixture was then cooled to room temperature and diluted with 5 ml of distilled water, and the absorbance was recorded at 540 nm using a UV–Visible spectrophotometer. Replacement of the synthesized compounds with 200 μl of buffer was established to obtain the blank sample. In this protocol, acarbose was the positive control sample.

[2] = biological target: T2, porcine pancreatic lipase (Sus scrofa, UniProt P00591); assay: Anti-lipase activity (PNPB hydrolysis); type: biochemical; details: for IC50 (µg/ml) Lipase: five dilutions 40, 100, 200, 300, 400 µg/ml, orlistat positive control; for IC50: read-out: IC50 (µg/ml) Lipase (converted)
T2 sequence (P00591 1-450): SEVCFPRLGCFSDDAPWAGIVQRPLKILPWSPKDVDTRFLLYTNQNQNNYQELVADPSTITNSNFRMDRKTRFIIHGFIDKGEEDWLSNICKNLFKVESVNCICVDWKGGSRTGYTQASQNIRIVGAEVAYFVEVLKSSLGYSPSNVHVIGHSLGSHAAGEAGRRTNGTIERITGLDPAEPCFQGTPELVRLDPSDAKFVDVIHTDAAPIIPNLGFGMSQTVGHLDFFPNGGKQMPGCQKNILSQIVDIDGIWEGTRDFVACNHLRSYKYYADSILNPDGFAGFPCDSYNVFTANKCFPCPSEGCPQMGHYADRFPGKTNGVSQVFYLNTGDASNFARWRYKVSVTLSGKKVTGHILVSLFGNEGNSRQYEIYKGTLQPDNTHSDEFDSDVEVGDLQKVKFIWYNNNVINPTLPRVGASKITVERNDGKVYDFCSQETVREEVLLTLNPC
Procedure: A solution of 1 mg/ml of the synthesized compounds was mixed with 10% dimethyl sulfoxide (DMSO) and then diluted with 10% DMSO to produce five dilutions (40, 100, 200, 300, and 400 µg/ml).
A freshly prepared stock solution of pancreatic lipase enzyme was established by suspending this enzyme in 10% DMSO to form 1 mg/ml. Firstly, 25 mg of lipase was suspended in a small amount of 10% DMSO, bringing the volume up to 25 ml in V.F (25 ml), this was then put in a water bath sonicator at 37 °C for 15 min. […] The pancreatic lipase inhibition assay was conducted by adopting the procedure in the references with slight modifications. From each working solution of the synthesized compounds prepared above, 200 µl of the synthesized compounds were taken and put in a separate test tube, then 100 µl of porcine pancreatic lipase (1 mg/ml) was added to it. The resulting mixture was then adjusted to 1000 µl after addition to the 700 µl of Tris–HCl solution, and then it was incubated in a water bath at 37 °C for 15 min. After the incubation, 100 µl of PNPB (p-nitrophenyl butyrate) solution was added to each test tube. This mixture was then incubated again in a water bath at 37 °C for 30 min. A solution characterized as a negative control was constructed without the synthesized compounds, using 100 µl of porcine pancreatic lipase (1 mg/ml) solution mixed with the Tris–HCl solution up to 1 ml after the addition of 900 µl. […] The % inhibition of the synthesized compounds was calculated by using the following equation: Inhibitory lipase%=Ab-As/Ab∗100

Row | Compound | IC50 (µg/ml) α-amylase [1] | IC50 (µg/ml) Lipase [2] | IC50 [1] | IC50 [2] | potency relative to acarbose, α-amylase [1] | α-amylase inhibitory activity in words [1]
1 | COc1ccc(NC(=O)c2ccc3c(c2)OCO3)cc1OC [6a] | 8.54 µg/mL and 8.547 ± 1.55 µg/mL | 44.47 ± 2.30 µg/mL (≈ 148 µM) | – | – | – | –
2 | COC(=O)Cc1cc2c(cc1C(=O)c1ccccc1I)OCO2 [3c] | 39.85 ± 1.3 µg/mL (≈ 93.9 µM) | > 400 µg/mL | – | – | – | –
3 | O=C(O)Cc1cc2c(cc1C(=O)c1ccccc1I)OCO2 [4d] | 7.95 ± 1.15 µg/mL (≈ 19.4 µM) | 187.7 ± 1.23 µg/mL (≈ 458 µM) | – | – | – | –
4 | COC(=O)Cc1cc2c(cc1C(=O)c1ccccc1Cl)OCO2 [3a] | – | – | 7.57 µM | 437 µM | – | –
5 | O=C(O)Cc1cc2c(cc1C(=O)c1cccc(I)c1)OCO2 [4e] | 3.85 ± 0.98 µg/mL (≈ 9.39 µM) | 201.2 ± 2.37 µg/mL (≈ 491 µM) | – | – | – | –
6 | O=C(O)Cc1cc2c(cc1C(=O)c1cccc(Cl)c1)OCO2 [4b] | 1.25 ± 1.01 µg/mL (≈ 3.92 µM) | > 400 µg/mL | – | – | five to six folds more potent than acarbose | –
7 | O=C(O)Cc1cc2c(cc1C(=O)c1ccccc1Cl)OCO2 [4a] | 8.88 ± 2.10 µg/mL (≈ 27.9 µM) | > 400 µg/mL | – | – | – | –
8 | O=C(O)Cc1cc2c(cc1C(=O)c1ccccc1)OCO2 [4c] | 4.12 ± 1.63 µg/mL (≈ 14.5 µM) | 213.82 ± 2.1 µg/mL (≈ 752 µM) | – | – | – | –
9 | O=C(O)Cc1cc2c(cc1C(=O)c1cccc(Br)c1)OCO2 [4 g] | 4.90 ± 2.21 µg/mL (≈ 13.5 µM) | 225.8 ± 1.43 µg/mL (≈ 622 µM) | – | – | – | –
10 | COc1cc(NC(=O)c2ccc3c(c2)OCO3)cc(OC)c1 [6b] | – | – | 14.2 µM | 335 µM | – | –
11 | COC(=O)Cc1cc2c(cc1C(=O)c1ccccc1)OCO2 [3b] | 61.45 ± 1.5 µg/mL (≈ 206 µM) | > 400 µg/mL | – | – | – | lowest activity
12 | COC(=O)Cc1cc2c(cc1C(=O)c1cccc(Br)c1)OCO2 [3f] | 9.29 ± 1.4 µg/mL (≈ 24.6 µM) | > 400 µg/mL | – | – | – | –
13 | COC(=O)Cc1cc2c(cc1C(=O)c1ccccc1Br)OCO2 [3e] | 2.57 ± 0.90 µg/mL (≈ 6.81 µM) | 78.37 ± 1.72 µg/mL (≈ 208 µM) | – | – | – | –
14 | O=C(O)Cc1cc2c(cc1C(=O)c1ccccc1Br)OCO2 [4f] | – | – | 3.06 µM | 800 µM | five to six folds more potent than acarbose | –
15 | COC(=O)Cc1cc2c(cc1C(=O)c1cccc(I)c1)OCO2 [3d] | 16.36 ± 0.75 µg/mL (≈ 38.6 µM) | 118.86 ± 2.1 µg/mL (≈ 280 µM) | – | – | – | –
